Assay results taken from patent publication US5334587A, “Compounds, named the "Leustroducsins", their preparation and their therapeutic uses” (Sankyo Company, Limited, priority 1991, dated 1994).
≈ marks a conversion by molar mass, not a printed value.

Experiments:
[1] = Acute toxicity; type: in vivo, ddY mice (male)
Experimental: According to the conventional procedure, the acute toxicity was tested in five ddY mice (male).

[2] = tested on: G-CSF production by KM-102 cells; experiment: Stimulation of G-CSF production (KM-102 cells; G-CSF assayed by growth of NFS-60 cells); type: cell-based, human; conditions: for EC50: Homo sapiens, 24 hours, NFS-60 cell growth, read-out: ED50 for stimulation of G-CSF production; for EC50 / induction of G-CSF production (in words): KM-102 cells
Text: (§1) The ability of the leustroducsins to stimulate the production of hematopoietic factors in accordance with the present invention can, in principle, be assayed by the method by Kohama et al. [Experimental Hematology 16, 603-608 (1988)]. In this method, a production system for various hematopoietic factors and an assay system for various hematopoietic factors are combined. KM-102 cells, for example, which originated from human bone marrow stromal cells, my be employed to produce various hematopoietic factors. However, any cells capable of the production of various hematopoietic factors may be used instead, for example primary cultured bone marrow stromal cells, vascular endothelial cells, lymphocytes, or macrophages which exist in the bone marrow. A test sample of the compound whose activity is to be assessed is diluted to a suitable concentration and added the culture system containing the cells which produce various hematopoietic factors ("HF-producing cells"). After a suitable period, usually 24 hours, a part of the supernatant of the culture medium is taken, and added to a culture system of cells which are dependent on various hematopoietic factors, for example, TF-1 cells and NFS-60 cells, ("HF-dependent cells") at a suitable concentration. After a certain time, the amount of hematopoietic factors can be measured by measuring the growth of the HF-dependent cells, and thus the ability of the compound to stimulate the production of various hematopoietic factors can be assayed. The growth of the HF-dependent cells may be determined by any conventional method, such as the incorporation of tritium-thymidine by the cells or using an MTT [3-(4,5-dimethylthiazol-2-yl)-2,5-diphenyltetrazolium bromide] assay method (Chemicon International Inc., USA). The assay of various hematopoietic factors may be carried out by any conventional method, such as the colony-forming method or the ELISA method.
Stimulation of G-CSF production was assayed by a system in which the GM-CSF assay system employed inTest Example 1 was replaced by a G-CSF assay system [as described by Shirafuji et al.: Experimental Hematology 17, 116-119 (1989)]. In more detail, KM-102 cells originating from human bone marrow stromal cells, which served to produce G-CSF, were added to a leustroducsin solution diluted to a suitable concentration (the "G-CSF producing system"). After incubation for 24 hours, a part of the culture supernatant was taken, and added to a culture system of G-CSF-dependent NFS-60 cells. After between 24 and 48 hours, the amount of G-CSF was assayed from the growth of NFS-60 cells (the "G-CSF assay system") to obtain a measure of the stimulation of G-CSF production. The growth of NFS-60 cells was determined by tritium-thymidine pulse-labelling for 4 hours. Similar results were also obtained by means of an MTT kit to assay the growth of NFS-60 cells and by means of an ELISA kit to assay the G-CSF [Motojima et al.: Journal of Immunological Methods 118, 187-192 (1989)]. Whether the G-CSF production inducing system functioned normally or not was assayed by means of recombinant interleukin 1 β (IL-1β: Genzyme Inc. USA).

[3] = tested on: GM-CSF production by KM-102 cells; experiment: Stimulation of GM-CSF production (KM-102 cells; GM-CSF assayed by growth of TF-1 cells); type: cell-based, human; conditions: for EC50: Homo sapiens, 24 hours, TF-1 cell growth, read-out: ED50 for stimulation of GM-CSF production; for EC50 / induction of GM-CSF production (in words): KM-102 cells
Text: as §1
Determination of the stimulation of GM-CSF production by the compounds of the present invention was carried out, in principle, using a combination of the method of Kohama et al. [Experimental Hematology 16, 603-608 (1988)] and that of Kitamura et al. [Journal of Cellular Physiology 140, 323-334 (1989)]. In more detail, KM-102 cells originating from human bone marrow stromal cells, which served as to produce GM-CSF, were mixed with a test sample solution diluted to a suitable concentration (the "GM-CSF producing system"). After incubation for 24 hours, a part of the culture supernatant was taken and was added to a culture system of GM-CSF-dependent human TF-1 cells. After between 48 and 72 hours, the amount of GM-CSF was measured by the growth of TF-1 cells (the "GM-CSF assay system") to obtain a measure of the stimulation of GM-CSF production. The growth of TF-1 cells was determined by tritium thymidine pulse-labelling for 4 hours. Similar results were obtained also by means of an MTT kit (Chemicon International Inc. USA) to assay the growth of TF-1 cells and by means of an ELISA kit (Genzyme Inc. USA) to assay the GM-CSF. Whether the GM-CSF production inducing system functioned normally or not was assayed by means of recombinant interleukin 1β (IL-1β: Genzyme Inc. USA).

[4] = Solubility / nature; type: physicochemical
[5] = similarly tested, dose not separately printed

With `CCC(C)CCCCC(=O)OC1CCCC(/C=C\C=C/C(O)CC(OP(=O)(O)O)C(O)(/C=C/C2OC(=O)C=CC2CC)CCN)C1` (centres unmarked) [Leustroducsin B] the acute toxicity [1, 5] was “no toxicity was observed”, the EC50 [2] was 0.05 µg/mL (≈ 0.0746 µM) and the “induction of G-CSF production (in words)” value [2] was “induced in a dose-dependent fashion”. The EC50 [3] was 0.05 µg/mL, the “induction of GM-CSF production (in words)” value [3] was “induced in a dose-dependent manner” and the Nature [4] was “Acidic and fat soluble”. For the same molecule, the Solubility in hexane [4] was “insoluble in hexane”, the “Solubility in organic solvents” value [4] was “Soluble in alcohols, such as methanol, ethanol or butanol; and soluble in acetone, chloroform, ethyl acetate and dimethyl sulfoxide” and the Solubility in water [4] was “limited solubility in water”.
With `CCC1C=CC(=O)OC1/C=C/C(O)(CCN)C(CC(O)/C=C\C=C/C1CCCC(OC(=O)CCCC(C)C)C1)OP(=O)(O)O` (centres unmarked) [Leustroducsin A] the acute toxicity ([1]; intraperitoneal, 0.2 mg/kg, 5 days, five mice) was “no toxicity was observed”, the EC50 [2] was 0.2 µg/mL (≈ 0.312 µM) and the “induction of G-CSF production (in words)” value [2] was “induced in a dose-dependent fashion”. The EC50 [3] was 0.18 µg/mL, the “induction of GM-CSF production (in words)” value [3] was “induced in a dose-dependent manner” and the Nature [4] was “Acidic and fat soluble”. For the same molecule, the Solubility in hexane [4] was “insoluble in hexane”, the “Solubility in organic solvents” value [4] was “Soluble in alcohols, such as methanol, ethanol or butanol; and soluble in acetone, chloroform, ethyl acetate and dimethyl sulfoxide” and the Solubility in water [4] was “limited solubility in water”.
With “IL-1β: recombinant interleukin 1β (IL-1β: Genzyme Inc. USA)” the “induction by IL-1β, printed as GM-CSF production in the G-CSF test (in words)” value ([2]; 1 to 100 units/ml) was “induced GM-CSF production in a dose-dependent fashion” and the “induction of GM-CSF production by IL-1β (in words)” value ([3]; 1 to 100 units/ml) was “induced GM-CSF production in a dose-dependent manner”.
For `CCC1C=CC(=O)OC1/C=C/C(O)(CCN)C(CC(O)/C=C\C=C/C1CCCC(OC(=O)CCCCCC(C)C)C1)OP(=O)(O)O` (centres unmarked) [Leustroducsin C], the acute toxicity [1, 5] was “no toxicity was observed”, the EC50 [2] was 0.05 µg/mL (≈ 0.0746 µM) and the “induction of G-CSF production (in words)” value [2] was “induced in a dose-dependent fashion”. For the same molecule, the EC50 [3] was 0.05 µg/mL, the “induction of GM-CSF production (in words)” value [3] was “induced in a dose-dependent manner” and the Nature [4] was “Acidic and fat soluble”. The Solubility in hexane [4] was “insoluble in hexane”, the “Solubility in organic solvents” value [4] was “Soluble in alcohols, such as methanol, ethanol or butanol; and soluble in acetone, chloroform, ethyl acetate and dimethyl sulfoxide” and the Solubility in water [4] was “limited solubility in water”.
